# Measured values: PMC5469811, “Identification of GXXXXG motif in Chrysophsin-1 and its implication in the design of analogs with cell-selective antimicrobial and anti-endotoxin activities” (Scientific Reports, 2017)
# Residues, ends and D or L forms follow the SMILES beside them.
# Experiments:
# [1] = tested on: Bacillus subtilis (ATCC 6633); test: microbe, parasite or virus in culture; assay type: cell-based; conditions: ATCC 6633; read-out: Minimum inhibitory concentration (MIC)
# Method: (§1) Antibacterial assay against various Gram-positive and Gram-negative strains of bacteria was performed by the serial two-fold dilution method according to the previously reported procedure, [36]. The antibacterial assays were repeated thrice and the averages of these MIC values were reported.
# [2] = tested on: Escherichia coli (ATCC 25922); test: microbe, parasite or virus in culture; assay type: cell-based; conditions: ATCC 25922; read-out: Minimum inhibitory concentration (MIC)
# Method: as §1
# [3] = tested on: Escherichia coli (ATCC 9637); test: microbe, parasite or virus in culture; assay type: cell-based; conditions: ATCC 9637; read-out: Minimum inhibitory concentration (MIC)
# Method: as §1
# [4] = tested on: Klebsiella pneumoniae (ATCC 27736); test: microbe, parasite or virus in culture; assay type: cell-based; conditions: ATCC 27736; read-out: Minimum inhibitory concentration (MIC)
# Method: as §1
# [5] = tested on: Pseudomonas aeruginosa (ATCC BAA-427); test: microbe, parasite or virus in culture; assay type: cell-based; conditions: ATCC BAA-427; read-out: Minimum inhibitory concentration (MIC)
# Method: as §1
# [6] = tested on: Staphylococcus aureus (ATCC 25923); test: microbe, parasite or virus in culture; assay type: cell-based; conditions: ATCC 25923; read-out: Minimum inhibitory concentration (MIC)
# Method: as §1
# [7] = tested on: Staphylococcus aureus (ATCC 29213); test: microbe, parasite or virus in culture; assay type: cell-based; conditions: ATCC 29213; read-out: Minimum inhibitory concentration (MIC)
# Method: as §1
# [8] = tested on: Staphylococcus aureus (ATCC 33592) Methicillin resistant Genatmicin resistant; test: microbe, parasite or virus in culture; assay type: cell-based; conditions: ATCC 33592; read-out: Minimum inhibitory concentration (MIC)
# Method: as §1
# [9] = tested on: Staphylococcus aureus (ATCC 700698 MRSA); test: microbe, parasite or virus in culture; assay type: cell-based; conditions: ATCC 700698; read-out: Minimum inhibitory concentration (MIC)
# Method: as §1
# [10] = tested on: Staphylococcus aureus (ATCC 700699 MRSA); test: microbe, parasite or virus in culture; assay type: cell-based; conditions: ATCC 700699; read-out: Minimum inhibitory concentration (MIC)
# Method: as §1
# [11] = tested on: Staphylococcus aureus (BAA-44)MDR; test: microbe, parasite or virus in culture; assay type: cell-based; conditions: BAA-44; read-out: Minimum inhibitory concentration (MIC)
# Method: as §1
# [12] = tested on: Candida albicans (ATCC 10231); test: microbe, parasite or virus in culture; assay type: cell-based; conditions: ATCC 10231, 48 h; read-out: Minimum inhibitory concentration (MIC)
# Method: (§2) The anti- fungal activity of peptides was performed according to the standard micro broth dilution technique as per NCCLS guidelines. These plates were incubated in a moist chamber at 35 °C, and an absorbance at 492 nm was recorded on a VersaMax microplate reader after 48 h for C. albicans ATCC 10231 and C. parapsilosis ATCC 22019 and 72 h for C. neoformans.
# [13] = tested on: Candida parapsilosis (ATCC 22019); test: microbe, parasite or virus in culture; assay type: cell-based; conditions: ATCC 22019, 48 h; read-out: Minimum inhibitory concentration (MIC)
# Method: as §2
# [14] = tested on: Cryptococcus neoformans; test: microbe, parasite or virus in culture; assay type: cell-based; conditions: 72 h; read-out: Minimum inhibitory concentration (MIC)
# Method: as §2
# [15] = tested on: Sporothrix schenckii (Patient isolates); test: microbe, parasite or virus in culture; assay type: cell-based; conditions: 48 h; read-out: Minimum inhibitory concentration (MIC)
# [16] = tested on: E. coli (ATCC 25922); assay type: cell-based, Escherichia coli; conditions: ATCC 25922, 1 h
# Method: (§3) E. coli ATCC25922 was grown to 10^6 CFU/ml in fresh MH broth with various divalent and monovalent salts at their physiological concentrations. Serial dilutions of chrysophsin-1 and its variants prepared with the same MH broth were added to the E. coli ATCC 25922 suspensions. The bacteria were incubated at 37 °C in a shaking incubator for 18 h and the MIC values of individual peptides against E. coli ATCC 25922 were determined. Thermal tolerance of Chrysophsin-1 and its variants was checked by incubating the peptides at 4 °C, 60 °C and 90 °C for 1 h prior to MIC determination. The antibacterial activity in presence of serum was carried out by adding a final concentration of 10% fetal bovine serum in the assay diluents containing 0.4% BSA, 0.02% glacial acetic acid. The subsequent steps in both the experiments were consistent with the MIC determination method.
# [17] = tested on: E. coli ATCC 25922; assay type: cell-based, Escherichia coli; conditions: ATCC 25922, 18 h
# Method: as §3
# [18] = tested on: S. aureus (ATCC 25923); assay type: cell-based, Staphylococcus aureus; conditions: ATCC 25923, 1 h
# Method: as §3
# [19] = tested on: E. coli ATCC 25922; test: Synergy with conventional antibiotics, checkerboard titration; assay type: cell-based, Escherichia coli
# Method: The checkerboard titration method was followed to check the synergy of peptides with other antibiotics. First, 2-fold serial dilutions of the antibiotics and antimicrobial peptides were prepared. Subsequently, 50 μl each of different concentrations of antibiotics and of antimicrobial peptides was mixed and added into 100 μl of log phase bacteria culture in a 96-well plate. The plates were then incubated at 37 °C for 24 h. The fractional inhibitory concentration (FIC) index (FICI) was calculated as follows[39]: FICI=(MICofdrugAincombination)/(MICofdrugAalone)+(MICofdrugBincombination)/(MICofdrugB): FICI < 0.5 is considered to indicate synergy; 0.5 < FICI < 1.0 is considered additive; 1.0 < FICI < 4.0 is considered indifferent; and FICI > 4.0 is considered antagonism.
smiles,measurement,setting,value
CC[C@H](C)[C@H](NC(=O)[C@H](C)NC(=O)[C@H](CCCCN)NC(=O)CNC(=O)[C@H](C)NC(=O)[C@H](Cc1c[nH]cn1)NC(=O)[C@@H](NC(=O)[C@H](C)NC(=O)[C@@H]1CCCN1C(=O)[C@H](CCCCN)NC(=O)[C@@H](NC(=O)[C@H](CC(C)C)NC(=O)[C@H](Cc1c[nH]c2ccccc12)NC(=O)CNC(=O)[C@H](Cc1ccccc1)NC(=O)[C@@H](N)Cc1ccccc1)[C@@H](C)CC)[C@@H](C)CC)C(=O)N[C@@H](Cc1c[nH]cn1)C(=O)NCC(=O)N[C@@H](CC(C)C)C(=O)N[C@H](C(=O)N[C@@H](Cc1c[nH]cn1)C(=O)N[C@@H](CCCNC(=N)N)C(=O)N[C@@H](CCCNC(=N)N)C(=O)N[C@@H](CCCNC(=N)N)C(=O)N[C@@H](Cc1c[nH]cn1)C(N)=O)[C@@H](C)CC [Peptide G8P-Chr-1] (H-FFGWLIKPAIHAGKAIHGLIHRRRH-NH2; N-terminus and C-terminus assumed),MIC,[1],3 µM
same,MIC,[2],4.1 µM
same,MIC,[3],3.3 µM
same,MIC,[4],3.3 µM
same,MIC,[5],6.8 µM
same,MIC,[6],3 µM
same,MIC,[7],1.6 µM
same,MIC,[8],0.8 µM
same,MIC,[9],1.6 µM
same,MIC,[10],1.6 µM
same,MIC,[11],1.6 µM
same,MIC,[12],3 µM
same,MIC,[13],6.8 µM
same,MIC,[14],6.8 µM
same,MIC,[15],13.6 µM
same,Antibacterial activity (MIC) after incubating peptide at 4 °C,[16],4.1 µM
same,Antibacterial activity (MIC) after incubating peptide at 60 °C,[16],4.3 µM
same,Antibacterial activity (MIC) after incubating peptide at 90 °C,[16],8.3 µM
same,Antibacterial activity (MIC) in the presence of 10% FBS,[17],8.6 µM
same,Antibacterial activity (MIC) in the presence of FeCl3,[17],4.1 µM
same,Antibacterial activity (MIC) in the presence of KCl,[17],4.3 µM
same,Antibacterial activity (MIC) in the presence of MgCl2,[17],4.3 µM
same,Antibacterial activity (MIC) in the presence of NH4Cl,[17],2.0 µM
same,Antibacterial activity (MIC) in the presence of NaCl,[17],8.6 µM
same,Antibacterial activity (MIC) in the presence of ZnCl2,[17],2 µM
same,Antibacterial activity (MIC) after incubating peptide at 4 °C,[18],3 µM
same,Antibacterial activity (MIC) after incubating peptide at 60 °C,[18],4.3 µM
same,Antibacterial activity (MIC) after incubating peptide at 90 °C,[18],8.6 µM
same,interaction of peptide with chloramphenicol (by FICI),[19],synergy (FICI < 0.5 is considered to indicate synergy)
